According to patent US8697687B2, “Treating diseases mediated by blockade of the epithelial sodium channel with pyrazine-2-carboxamide derivatives” (Novartis AG, priority 2007, dated 2014):
pIC50: −log10 of the molar value. Counter-ions that a name gives are not always drawn.

Biological target: T1, epithelial sodium channel (ENaC) (Homo sapiens, UniProt P37088+P51168+P51170)
T1 construct: host or cells: primary Human Bronchial Epithelial cells (HBECs), air-liquid interface culture
T1 sequence (P37088 1-669): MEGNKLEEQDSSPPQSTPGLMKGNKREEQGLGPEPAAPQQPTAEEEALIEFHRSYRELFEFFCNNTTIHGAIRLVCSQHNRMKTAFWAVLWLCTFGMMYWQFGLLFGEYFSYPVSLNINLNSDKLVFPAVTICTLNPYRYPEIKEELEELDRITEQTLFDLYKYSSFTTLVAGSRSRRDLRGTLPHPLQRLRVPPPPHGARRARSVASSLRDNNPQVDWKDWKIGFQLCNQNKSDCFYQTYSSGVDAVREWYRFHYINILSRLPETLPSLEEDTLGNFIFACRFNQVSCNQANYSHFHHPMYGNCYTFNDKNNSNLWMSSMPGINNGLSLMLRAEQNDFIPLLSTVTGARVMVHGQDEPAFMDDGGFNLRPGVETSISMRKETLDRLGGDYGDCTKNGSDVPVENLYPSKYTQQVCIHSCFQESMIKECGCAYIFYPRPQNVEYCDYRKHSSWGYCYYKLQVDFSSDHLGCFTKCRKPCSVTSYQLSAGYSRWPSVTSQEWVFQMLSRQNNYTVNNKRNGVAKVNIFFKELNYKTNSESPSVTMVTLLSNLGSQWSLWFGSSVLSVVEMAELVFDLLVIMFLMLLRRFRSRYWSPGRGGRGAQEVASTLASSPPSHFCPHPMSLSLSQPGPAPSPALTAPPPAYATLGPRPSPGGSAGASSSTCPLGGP
T1 sequence (P51168 1-640): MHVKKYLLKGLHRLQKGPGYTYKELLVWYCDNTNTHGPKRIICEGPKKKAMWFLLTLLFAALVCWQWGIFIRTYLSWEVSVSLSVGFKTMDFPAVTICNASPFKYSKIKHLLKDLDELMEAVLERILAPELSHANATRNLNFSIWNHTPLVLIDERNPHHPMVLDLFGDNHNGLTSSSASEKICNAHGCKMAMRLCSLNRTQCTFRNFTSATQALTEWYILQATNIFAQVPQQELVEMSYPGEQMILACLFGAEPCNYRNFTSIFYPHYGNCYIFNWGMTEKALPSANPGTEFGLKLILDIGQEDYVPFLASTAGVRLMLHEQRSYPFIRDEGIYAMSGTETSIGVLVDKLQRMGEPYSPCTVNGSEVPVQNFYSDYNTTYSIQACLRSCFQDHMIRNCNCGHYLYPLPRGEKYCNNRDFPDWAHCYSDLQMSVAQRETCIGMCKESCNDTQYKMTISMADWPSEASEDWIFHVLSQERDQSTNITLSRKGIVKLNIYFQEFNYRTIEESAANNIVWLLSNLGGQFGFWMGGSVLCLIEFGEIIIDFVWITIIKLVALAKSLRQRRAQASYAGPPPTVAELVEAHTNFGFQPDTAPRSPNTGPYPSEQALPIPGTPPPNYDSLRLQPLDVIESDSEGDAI
T1 sequence (P51170 1-649): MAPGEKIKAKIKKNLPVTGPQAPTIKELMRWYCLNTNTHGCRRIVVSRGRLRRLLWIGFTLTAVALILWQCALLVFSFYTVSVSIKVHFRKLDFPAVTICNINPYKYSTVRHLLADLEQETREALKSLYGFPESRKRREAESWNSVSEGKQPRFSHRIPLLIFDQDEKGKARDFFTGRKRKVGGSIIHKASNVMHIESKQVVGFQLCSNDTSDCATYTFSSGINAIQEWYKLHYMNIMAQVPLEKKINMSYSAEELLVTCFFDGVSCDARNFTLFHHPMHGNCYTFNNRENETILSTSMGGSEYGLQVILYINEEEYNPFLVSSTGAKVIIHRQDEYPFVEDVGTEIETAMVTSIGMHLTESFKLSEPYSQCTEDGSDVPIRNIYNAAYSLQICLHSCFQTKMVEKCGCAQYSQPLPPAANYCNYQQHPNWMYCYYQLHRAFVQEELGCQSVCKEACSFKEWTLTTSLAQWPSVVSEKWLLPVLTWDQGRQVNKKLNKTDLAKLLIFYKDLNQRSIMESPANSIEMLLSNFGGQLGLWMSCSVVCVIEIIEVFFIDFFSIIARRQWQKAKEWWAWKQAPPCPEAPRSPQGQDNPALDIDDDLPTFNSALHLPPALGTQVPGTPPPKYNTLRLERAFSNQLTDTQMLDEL
Test: Short circuit current (ISC) measurements in Human Bronchial Epithelial cells, inhibition of amiloride-sensitive ISC
Format: cell-based
Conditions: inhibition of the amiloride-sensitive ISC; Human Bronchial Epithelial cells (HBECs) at air-liquid interface; compound added to apical chamber; read-out: IC50
Method: Compounds of formula (I) and their pharmaceutically acceptable salts, hereinafter referred to alternatively as “agents of the invention”, are useful as pharmaceuticals. In particular, the compounds have good ENaC blocker activity and may be tested in the following assays.
Human Bronchial Epithelial cells (HBECs) (Cambrex) were cultured under air-liquid interface conditions to provide a well differentiated mucociliary phenotype.
HBECs were cultured using a modification of the method described by Gray and colleagues (Gray et al., 1996). Cells were seeded in plastic T-162 flasks and were grown in bronchial epithelial cell growth medium (BEGM; Cambrex) supplemented with bovine pituitary extract (52 μg/mL), hydrocortisone (0.5 μg/mL), human recombinant epidermal growth factor (0.5 ng/mL), epinephrine (0.5 μg/mL), transferrin (10 μg/mL), insulin (5 μg/mL), retinoic acid (0.1 μg/mL), triiodothyronine ([…]), gentamycin (50 μg/mL) and amphotericin B (50 ng/mL). Medium was changed every 48 hours until cells were 90% confluent. Cells were then passaged and seeded (8.25×10^5 cells/insert) on polycarbonate Snapwell inserts (Costar) in differentiation media containing 50% DMEM in BEGM with the same supplements as above but without triiodothyronine and a final retinoic acid concentration of 50 nM (all-trans retinoic acid). Cells were maintained submerged for the first 7 days in culture, after which time they were exposed to an apical air interface for the remainder of the culture period. At this time, media was changed to DMEM:F12 media containing 2% v/v Ultroser G for the remainder of culture. Amphotericin B was removed from all media 3 feeds prior to use in the Using Chambers. Cells were used between days 7 and 21 after establishment of the apical-air interface. At all stages of culture, cells were maintained at 37° C. in 5% CO2 in an air incubator.
Short Circuit Current (ISC) Measurements
Snapwell inserts were mounted in Vertical Diffusion Chambers (Costar) and were bathed with continuously gassed Ringer solution (5% CO2 in O2; pH 7.4) maintained at 37° C. containing (in mM): 120 NaCl, 25 NaHCO3, 3.3 KH2PO4, 0.8 K2HPO4, 1.2 CaCl2, 1.2 MgCl2, and 10 glucose. The solution osmolarity was between 280 and 300 mOsmol/kg H2O for all physiological salt solutions used. Cells were voltage clamped to 0 mV (model EVC4000; WPI). RT was measured by applying a 1- or 2-mV pulse at 30-s intervals and calculating RT by Ohm's law. Data were recorded using a PowerLab workstation (ADInstruments).
Test compounds were prepared as a 10 mM stock solution in DMSO (95%). Serial 3-fold dilutions were freshly prepared in an appropriate vehicle (distilled H2O or Ringers solution). The initial concentration was added to the apical chamber as a 1000× concentrate in 5 μL, resulting in a final 1× concentration the 5 mL volume of the Ussing chamber. Subsequent additions of compound were added in a 3.3 μL volume of the 1000× serially diluted stock solution. At the completion of the concentration-response experiment, amiloride (10 μM) was added into the apical chamber to enable the total amiloride-sensitive current to be measured. An amiloride control IC50 was established at the start of each experiment.
Results are expressed as the mean % inhibition of the amiloride-sensitive ISC. Concentration-response curves were plotted and IC50 values generated using GraphPad Prism 3.02. Cell inserts were typically run in duplicate and the IC50 calculated on the mean % inhibition data.

In order of falling pIC50:
1. Nc1nc(N)c(C(=O)/N=C2\NCC3(CCN(C(=O)c4cccc(S(=O)(=O)N5CCC(S(=O)(=O)c6ccccc6)C5)c4)CC3)N2)nc1Cl (stereo not shown) [Example 141, 3,5-Diamino-6-chloro-pyrazine-2-carboxylic acid [8-[3-(3-benzenesulfonyl-pyrrolidine-1-sulfonyl)-benzoyl]-1,3,8-triaza-spiro[4.5]dec-(2E)-ylidene]-amide]  8.70
2. Nc1nc(N)c(C(=O)/N=C2\NCC3(CCN(C(=O)CCc4nc(-c5ccc(Cl)cc5)no4)CC3)N2)nc1Cl [Example 146, 3,5-Diamino-6-chloro-pyrazine-2-carboxylic acid [8-{3-[3-(4-chlorophenyl)-[1,2,4]oxadiazol-5-yl]-propionyl}-1,3,8-triaza-spiro[4.5]dec-(2E)-ylidene-amide trifluoroacetate]  8.22
3. Nc1nc(N)c(C(=O)/N=C2\NCC3(CCN(C(=O)NCCc4cccc(OCc5ccccc5)c4)CC3)N2)nc1Cl [Example 220, 2-[(E)-3,5-Diamino-6-chloro-pyrazine-2-carbonylimino]-1,3,8-triaza-spiro[4.5]decane-8-carboxylic acid [2-(3-benzyloxy-phenyl)-ethyl]-amide]  8.07
4. CCOC(=O)C1CCCN(S(=O)(=O)c2cccc(C(=O)N3CCC4(CC3)CN/C(=N\C(=O)c3nc(Cl)c(N)nc3N)N4)c2)C1 (stereo not shown) [Example 128, 1-(3-{2-[(E)-3,5-Diamino-6-chloro-pyrazine-2-carbonylimino]-1,3,8-triaza-spiro[4.5]decane-8-carbonyl}-benzenesulfonyl)-piperidine-3-carboxylic acid ethyl ester]  7.94
5. Cc1ccc(S(=O)(=O)n2ccc(C(=O)N3CCC4(CC3)CN/C(=N\C(=O)c3nc(Cl)c(N)nc3N)N4)c2)cc1 [Example 147, 3,5-Diamino-6-chloro-pyrazine-2-carboxylic acid [8-[1-(toluene-4-sulfonyl)-1H-pyrrole-3-carbonyl]-1,3,8-triaza-spiro[4.5]dec-(2E)-ylidene]-amide]  7.80
6. CC(C)COC1CCN(S(=O)(=O)c2cccc(C(=O)N3CCC4(CC3)CN/C(=N\C(=O)c3nc(Cl)c(N)nc3N)N4)c2)CC1 [Example 126, 3,5-Diamino-6-chloro-pyrazine-2-carboxylic acid [8-[3-(4-isobutoxy-piperidine-1-sulfonyl)-benzoyl]-1,3,8-triaza-spiro[4.5]dec-(2E)-ylidene]-amide]  7.60
7. Nc1nc(N)c(C(=O)/N=C2\NCC3(CCN(C(=O)NCc4ccccc4)CC3)N2)nc1Cl [Example 215, 2-[(E)-3,5-Diamino-6-chloro-pyrazine-2-carbonylimino]-1,3,8-triaza-spiro[4.5]decane-8-carboxylic acid benzylamide]  7.44
8. Nc1nc(N)c(C(=O)/N=C2\NCC3(CCN(S(=O)(=O)Cc4ccccc4)CC3)N2)nc1Cl [Example 232, 3,5-Diamino-6-chloro-pyrazine-2-carboxylic acid [8-phenylmethanesulfonyl-1,3,8-triaza-spiro[4.5]dec-(2E)-ylidene]-amide]  7.27
9. CC(=O)N[C@@H](Cc1ccc(OC(C)C)cc1)C(=O)N1CCC2(CC1)CN/C(=N\C(=O)c1nc(Cl)c(N)nc1N)N2 [Example 185, 3,5-Diamino-6-chloro-pyrazine-2-carboxylic acid [8-[(S)-2-acetylamino-3-(4-isopropoxy-phenyl)-propionyl]-1,3,8-triaza-spiro[4.5]dec-(2E)-ylidene]-amide]  7.21
10. Nc1nc(N)c(C(=O)/N=C2\NCC3(CCN(C(=O)NCCCc4ccccn4)CC3)N2)nc1Cl [Example 228, 2-[(E)-3,5-Diamino-6-chloro-pyrazine-2-carbonylimino]-1,3,8-triaza-spiro[4.5]decane-8-carboxylic acid (3-pyridin-2-yl-propyl)-amide]  7.03
11. Cc1oc(-c2ccccc2)nc1COc1ccc(S(=O)(=O)N2CCC3(CC2)CN/C(=N\C(=O)c2nc(Cl)c(N)nc2N)N3)cc1 [Example 238, 3,5-Diamino-6-chloro-pyrazine-2-carboxylic acid [8-[4-(5-methyl-2-phenyl-oxazol-4-ylmethoxy)-benzenesulfonyl]-1,3,8-triaza-spiro[4.5]dec-(2E)-ylidene]-amide]  6.92
12. Nc1nc(N)c(C(=O)/N=C2\NCC3(CCN(C(=O)c4cocn4)CC3)N2)nc1Cl [Example 118, 3,5-Diamino-6-chloro-pyrazine-2-carboxylic acid [8-(oxazole-4-carbonyl)-1,3,8-triaza-spiro[4.5]dec-(2E)-ylidene]-amide]  6.76
13. Cn1ccc2cc(S(=O)(=O)N3CCC4(CC3)CN/C(=N\C(=O)c3nc(Cl)c(N)nc3N)N4)ccc21 [Example 235, 3,5-Diamino-6-chloro-pyrazine-2-carboxylic acid [8-(1-methyl-1H-indole-5-sulfonyl)-1,3,8-triaza-spiro[4.5]dec-(2E)-ylidene]-amide]  6.44
